Tests used:
Experiment in all cases: agar diffusion, inhibition halo
Format in all cases: cell-based
[1] = system: Penicillium italicum CECT 2294; conditions: for zone of inhibition at 1000 ppm / zone of inhibition at 4000 ppm / zone of inhibition at 6000 ppm / zone of inhibition at 125 ppm / zone of inhibition at 250 ppm / zone of inhibition at 500 ppm: Penicillium italicum; for zone of inhibition at 1000 ppm / zone of inhibition at 125 ppm / zone of inhibition at 250 ppm / zone of inhibition at 500 ppm: CECT2294, read-out: inhibition halo diameter; for zone of inhibition at 4000 ppm / zone of inhibition at 6000 ppm: CECT2294, read-out: inhibition halo diameter
Procedure: (§1) In order to evaluate the antimicrobial activity the agar diffusion technique with cellulose discs of 6 mm in diameter impregnated with the different active ingredient testing doses was used.
(§2) Antifungal capacity was assessed against suspensions of […], harvested from pure cultures of the selected molds and against suspensions of 10^7 cells/ml for the case of yeasts. The culture medium used was the 2% Sabouraud-glucose medium (Merck).
(§3) After incubating the culture dishes inoculated with the different organisms at the corresponding temperatures, the microbial inhibition halos that appeared were measured, and said measurement includes the 6 mm diameter of the cellulose discs.

[2] = system: Mucor plumbeus, isolated from cheese; conditions: 1000 ppm
Procedure: as §1, §2, §3

[3] = system: Bacillus subtilis, isolated from paprika
Procedure: as §1
(§4) Antibacterial capacity was assessed against suspensions of 10^6 cells/ml, prepared from pure young cultures of each one of the strains to be tested. The culture medium used was Müller-Hinton medium (Merck).
as §3

[4] = system: Salmonella typhimurium, ATCC 13311; conditions: 1000 ppm
Procedure: as §1, §4, §3

[5] = system: Staphylococcus aureus, isolated from hamburgers; conditions: 1000 ppm
Procedure: as §1, §4, §3

[6] = system: Trichoderma aureoviride CECT 20102
Procedure: as §1, §2, §3

[7] = system: Geotrichum candidum CECT 1902
Procedure: as §1, §2, §3

[8] = system: Rhizopus stolonifer CECT 2344
Procedure: as §1, §2, §3

[9] = system: Aspergillus niger, CECT 2700
Procedure: as §1, §2, §3

[10] = system: Aspergillus terreus, isolated from the environment of the cheese maturation chamber
Procedure: as §1, §2, §3

[11] = system: Candida krusei, isolated from cheese
Procedure: as §1, §2, §3

[12] = system: Penicillium sp, isolated from cheese
Procedure: as §1, §2, §3

[13] = system: Bacillus cereus, CECT 1178
Procedure: as §1, §4, §3

[14] = system: Listeria monocytogenes, ATCC 15313
Procedure: as §1, §4, §3

[15] = system: Escherichia coli, CECT 515
Procedure: as §1, §4, §3

[16] = 4000 ppm (active ingredient, dose in ppm)
[17] = 6000 ppm (active ingredient, dose in ppm)
[18] = 1000 ppm (active ingredient, dose in ppm)
[19] = 2000 ppm (active ingredient, dose in ppm)

## CCCSS(=O)(=O)CCC [PTSO, Propyl Propylthiosulfonate]
[1]
  zone of inhibition at 1000 ppm: 65 mm
[2]
  inhibition halo diameter: 13 mm
[3]; 1000 ppm
  inhibition halo diameter: 65 mm
[4]
  inhibition halo diameter: 31 mm
[5]
  inhibition halo diameter: 55 mm

## Oc1ccccc1-c1ccccc1 [o-Phenyl phenol]
[6]; [16]
  inhibition halo diameter: 40 mm
[6]; [17]
  inhibition halo diameter: 42 mm
[1]
  zone of inhibition at 4000 ppm: 45 mm
  zone of inhibition at 6000 ppm: 45 mm
[7]; [16]
  inhibition halo diameter: 45 mm
[7]; [17]
  inhibition halo diameter: 47 mm
[8]; [16]
  inhibition halo diameter: 14 mm
[8]; [17]
  inhibition halo diameter: 15 mm

## C=CCSSC=CC[S+]([O-])CC=C (mixture of isomers) [Ajoene, (E)-(Z)-ajoene]
[9]; 125 ppm
  inhibition halo diameter: 11 mm
[9]; 250 ppm
  inhibition halo diameter: 13 mm
[9]; 500 ppm
  inhibition halo diameter: 24 mm
[9]; 1000 ppm
  inhibition halo diameter: 27 mm
[10]; 125 ppm
  inhibition halo diameter: 18 mm
[10]; 250 ppm
  inhibition halo diameter: 21 mm
[10]; 500 ppm
  inhibition halo diameter: 32 mm
[10]; 1000 ppm
  inhibition halo diameter: 40 mm
[11]; 125 ppm
  inhibition halo diameter: 26 mm
[11]; 250 ppm
  inhibition halo diameter: 32 mm
[11]; 500 ppm
  inhibition halo diameter: 38 mm
[11]; 1000 ppm
  inhibition halo diameter: 42 mm
[1]
  zone of inhibition at 125 ppm: 18 mm
  zone of inhibition at 250 ppm: 24 mm
  zone of inhibition at 500 ppm: 44 mm
  zone of inhibition at 1000 ppm: 50 mm
[12]; 125 ppm
  inhibition halo diameter: 12 mm
[12]; 250 ppm
  inhibition halo diameter: 27 mm
[12]; 500 ppm
  inhibition halo diameter: 40 mm
[12]; 1000 ppm
  inhibition halo diameter: 40 mm
[7]; 125 ppm
  inhibition halo diameter: 14 mm
[7]; 250 ppm
  inhibition halo diameter: 20 mm
[7]; 500 ppm
  inhibition halo diameter: 26 mm
[7]; 1000 ppm
  inhibition halo diameter: 34 mm
[3]; 125 ppm
  inhibition halo diameter: 36 mm
[3]; 250 ppm
  inhibition halo diameter: 40 mm
[3]; 500 ppm
  inhibition halo diameter: 54 mm
[3]; 1000 ppm
  inhibition halo diameter: 62 mm
[13]; 125 ppm
  inhibition halo diameter: 18 mm
[13]; 250 ppm
  inhibition halo diameter: 24 mm
[13]; 500 ppm
  inhibition halo diameter: 30 mm
[13]; 1000 ppm
  inhibition halo diameter: 36 mm
[14]; 125 ppm
  inhibition halo diameter: 16 mm
[14]; 250 ppm
  inhibition halo diameter: 18 mm
[14]; 500 ppm
  inhibition halo diameter: 20 mm
[14]; 1000 ppm
  inhibition halo diameter: 30 mm
[15]; 125 ppm
  inhibition halo diameter: 7 mm
[15]; 250 ppm
  inhibition halo diameter: 9 mm
[15]; 500 ppm
  inhibition halo diameter: 11 mm
[15]; 1000 ppm
  inhibition halo diameter: 13 mm

## C=CC1CC=CSS1 (centres unmarked) [3-vinyl-4H-1,2-dithiin]
[9]; 125 ppm
  inhibition halo diameter: 0 mm
[9]; 250 ppm
  inhibition halo diameter: 7 mm
[9]; 500 ppm
  inhibition halo diameter: 10 mm
[9]; 1000 ppm
  inhibition halo diameter: 14 mm
[10]; 125 ppm
  inhibition halo diameter: 0 mm
[10]; 250 ppm
  inhibition halo diameter: 0 mm
[10]; 500 ppm
  inhibition halo diameter: 0 mm
[10]; 1000 ppm
  inhibition halo diameter: 0 mm
[11]; 125 ppm
  inhibition halo diameter: 0 mm
[11]; 250 ppm
  inhibition halo diameter: 7 mm
[11]; 500 ppm
  inhibition halo diameter: 8 mm
[11]; 1000 ppm
  inhibition halo diameter: 10 mm
[1]
  zone of inhibition at 125 ppm: 0 mm
  zone of inhibition at 250 ppm: 0 mm
  zone of inhibition at 500 ppm: 0 mm
  zone of inhibition at 1000 ppm: 0 mm
[12]; 125 ppm
  inhibition halo diameter: 0 mm
[12]; 250 ppm
  inhibition halo diameter: 6 mm
[12]; 500 ppm
  inhibition halo diameter: 7 mm
[12]; 1000 ppm
  inhibition halo diameter: 10 mm
[7]; 125 ppm
  inhibition halo diameter: 0 mm
[7]; 250 ppm
  inhibition halo diameter: 0 mm
[7]; 500 ppm
  inhibition halo diameter: 0 mm
[7]; 1000 ppm
  inhibition halo diameter: 0 mm
[3]; 125 ppm
  inhibition halo diameter: 8 mm
[3]; 250 ppm
  inhibition halo diameter: 9 mm
[3]; 500 ppm
  inhibition halo diameter: 10 mm
[3]; 1000 ppm
  inhibition halo diameter: 12 mm
[13]; 125 ppm
  inhibition halo diameter: 7 mm
[13]; 250 ppm
  inhibition halo diameter: 8 mm
[13]; 500 ppm
  inhibition halo diameter: 8 mm
[13]; 1000 ppm
  inhibition halo diameter: 10 mm
[14]; 125 ppm
  inhibition halo diameter: 0 mm
[14]; 250 ppm
  inhibition halo diameter: 0 mm
[14]; 500 ppm
  inhibition halo diameter: 0 mm
[14]; 1000 ppm
  inhibition halo diameter: 0 mm
[15]; 125 ppm
  inhibition halo diameter: 0 mm
[15]; 250 ppm
  inhibition halo diameter: 0 mm
[15]; 500 ppm
  inhibition halo diameter: 0 mm
[15]; 1000 ppm
  inhibition halo diameter: 0 mm

## c1ccc(-c2ccccc2)cc1 [Biphenyl]
[6]; [16]
  inhibition halo diameter: 0 mm
[6]; [17]
  inhibition halo diameter: 0 mm
[1]
  zone of inhibition at 4000 ppm: 7 mm
  zone of inhibition at 6000 ppm: 8 mm
[7]; [16]
  inhibition halo diameter: 0 mm
[7]; [17]
  inhibition halo diameter: 0 mm
[8]; [16]
  inhibition halo diameter: 0 mm
[8]; [17]
  inhibition halo diameter: 0 mm

## CCCCS[S+]([O-])CCCC (centres unmarked) [BTS, n-butyl n-butyl thiosulfinate]
[1]
  zone of inhibition at 1000 ppm: 67 mm
[2]
  inhibition halo diameter: 17 mm
[3]; 1000 ppm
  inhibition halo diameter: 60 mm
[4]
  inhibition halo diameter: 20 mm
[5]
  inhibition halo diameter: 45 mm

## [Na+].[O-]c1ccccc1-c1ccccc1 [30% Na o-phenylphenate, Na o-phenylphenate]
[6]; [18]
  inhibition halo diameter: 0 mm
[6]; [19]
  inhibition halo diameter: 10 mm
[6]; [16]
  inhibition halo diameter: 20 mm
[6]; [17]
  inhibition halo diameter: 35 mm
[1]; [18]
  inhibition halo diameter: 20 mm
[1]; [19]
  inhibition halo diameter: 30 mm
[1]; [16]
  inhibition halo diameter: 33 mm
[1]; [17]
  inhibition halo diameter: 53 mm
[7]; [18]
  inhibition halo diameter: 7 mm
[7]; [19]
  inhibition halo diameter: 30 mm
[7]; [16]
  inhibition halo diameter: 35 mm
[7]; [17]
  inhibition halo diameter: 40 mm
[8]; [18]
  inhibition halo diameter: 0 mm
[8]; [19]
  inhibition halo diameter: 0 mm
[8]; [16]
  inhibition halo diameter: 0 mm
[8]; [17]
  inhibition halo diameter: 0 mm

Source: US20070160725A1, “Use of extracts and compounds of allium-genus plants as preservatives in the food and agri-food industries” (MOUSALA, S., L., priority 2004, published 2007)
